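Five compound concentrations were applied to cells in 96-well plates for 48 hours; endpoints were derived by simple linear interpolation of the resulting dose-response curve. The concentration for 50% growth inhibition is given as GI50. TGI: concentration producing complete growth inhibition.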
Key:
Test in all cases: NCI-60 cell line screen, 48 h
K-562 leukemia = tested on: K-562 leukemia
HCT-116 colon = tested on: HCT-116 colon
MDA-MB-435 = tested on: MDA-MB-435
T-47D breast = tested on: T-47D breast
SK-MEL-2 melanoma = tested on: SK-MEL-2 melanoma
M14 melanoma = tested on: M14 melanoma
NCI-H522 lung = tested on: NCI-H522 lung
A498 renal = tested on: A498 renal
SK-MEL-28 melanoma = tested on: SK-MEL-28 melanoma
HOP-92 NSCLC = tested on: HOP-92 NSCLC
SF-295 CNS = tested on: SF-295 CNS
OVCAR-3 ovarian = tested on: OVCAR-3 ovarian
UO-31 renal = tested on: UO-31 renal
HCC-2998 colon = tested on: HCC-2998 colon
RXF 393 renal = tested on: RXF 393 renal
TK-10 renal = tested on: TK-10 renal
COLO 205 colon = tested on: COLO 205 colon
786-0 renal = tested on: 786-0 renal
SF-268 CNS = tested on: SF-268 CNS
SN12C renal = tested on: SN12C renal
SNB-75 CNS = tested on: SNB-75 CNS
NCI-H226 lung = tested on: NCI-H226 lung
HS 578T breast = tested on: HS 578T breast
MDA-MB-231 breast = tested on: MDA-MB-231 breast
BT-549 breast = tested on: BT-549 breast
UACC-257 melanoma = tested on: UACC-257 melanoma
MOLT-4 leukemia = tested on: MOLT-4 leukemia
UACC-62 melanoma = tested on: UACC-62 melanoma
DU-145 prostate = tested on: DU-145 prostate
OVCAR-8 ovarian = tested on: OVCAR-8 ovarian
ACHN renal = tested on: ACHN renal
U251 CNS = tested on: U251 CNS
PC-3 prostate = tested on: PC-3 prostate
EKVX NSCLC = tested on: EKVX NSCLC
IGROV1 ovarian = tested on: IGROV1 ovarian
HOP-62 NSCLC = tested on: HOP-62 NSCLC
NCI-H460 lung = tested on: NCI-H460 lung
SW-620 colon = tested on: SW-620 colon
MCF7 breast = tested on: MCF7 breast
NCI-H23 lung = tested on: NCI-H23 lung
HT29 colon = tested on: HT29 colon
SK-MEL-5 melanoma = tested on: SK-MEL-5 melanoma
NCI/ADR-RES ovarian = tested on: NCI/ADR-RES ovarian
LOX IMVI melanoma = tested on: LOX IMVI melanoma
OVCAR-5 ovarian = tested on: OVCAR-5 ovarian
SK-OV-3 ovarian = tested on: SK-OV-3 ovarian
HCT-15 colon = tested on: HCT-15 colon
RPMI-8226 leukemia = tested on: RPMI-8226 leukemia
OVCAR-4 ovarian = tested on: OVCAR-4 ovarian
SNB-19 CNS = tested on: SNB-19 CNS
CAKI-1 renal = tested on: CAKI-1 renal
KM12 colon = tested on: KM12 colon
A549 NSCLC = tested on: A549 NSCLC

`CC(=O)OCCCC#CC#Cc1cccc(=O)o1` was tested, and the GI50 (K-562 leukemia) was 5.38 µM, the TGI (K-562 leukemia) was 28.9 µM and the GI50 (HCT-116 colon) was 14.6 µM. It also gave a TGI (HCT-116 colon) of 29.1 µM, a GI50 (MDA-MB-435) of 16 µM and a TGI (MDA-MB-435) of 31.4 µM. For the same compound, the GI50 (T-47D breast) was 20 µM, the TGI (T-47D breast) was 51.1 µM and the GI50 (SK-MEL-2 melanoma) was 40 µM. For the same compound, the TGI (SK-MEL-2 melanoma) was greater than 100 µM, the GI50 (M14 melanoma) was 17.8 µM and the TGI (M14 melanoma) was 36.5 µM. The GI50 (NCI-H522 lung) was 32.1 µM, the TGI (NCI-H522 lung) was greater than 100 µM and the GI50 (A498 renal) was 23.9 µM. The TGI (A498 renal) was 39.4 µM, the GI50 (SK-MEL-28 melanoma) was 23.9 µM and the TGI (SK-MEL-28 melanoma) was 55.8 µM. For the same compound, the GI50 (HOP-92 NSCLC) was 19.8 µM, the TGI (HOP-92 NSCLC) was 37.8 µM and the GI50 (SF-295 CNS) was 17.8 µM. The TGI (SF-295 CNS) was 32.7 µM, the GI50 (OVCAR-3 ovarian) was 2.89 µM and the TGI (OVCAR-3 ovarian) was 14.2 µM. For the same compound, the GI50 (UO-31 renal) was 3.52 µM, the TGI (UO-31 renal) was greater than 100 µM and the GI50 (HCC-2998 colon) was 16.6 µM. It also gave a TGI (HCC-2998 colon) of 33.2 µM, a GI50 (RXF 393 renal) of 24.3 µM and a TGI (RXF 393 renal) of 43.8 µM. The GI50 (TK-10 renal) was 13 µM, the TGI (TK-10 renal) was 26.4 µM and the GI50 (COLO 205 colon) was 19.4 µM. It also gave a TGI (COLO 205 colon) of 41.8 µM, a GI50 (786-0 renal) of 19 µM and a TGI (786-0 renal) of 35.1 µM. For the same compound, the GI50 (SF-268 CNS) was 19.4 µM, the TGI (SF-268 CNS) was 41.1 µM and the GI50 (SN12C renal) was 19 µM. For the same compound, the TGI (SN12C renal) was 39.7 µM, the GI50 (SNB-75 CNS) was 29.1 µM and the TGI (SNB-75 CNS) was 67.2 µM. It also gave a GI50 (NCI-H226 lung) of 20.8 µM, a TGI (NCI-H226 lung) of 52.8 µM and a GI50 (HS 578T breast) of 25.8 µM. The TGI (HS 578T breast) was 56.7 µM, the GI50 (MDA-MB-231 breast) was 13.7 µM and the TGI (MDA-MB-231 breast) was 29 µM. For the same compound, the GI50 (BT-549 breast) was 10.6 µM, the TGI (BT-549 breast) was 26.6 µM and the GI50 (UACC-257 melanoma) was 23.8 µM. For the same compound, the TGI (UACC-257 melanoma) was 55.6 µM, the GI50 (MOLT-4 leukemia) was 6.59 µM and the TGI (MOLT-4 leukemia) was greater than 100 µM. For the same compound, the GI50 (UACC-62 melanoma) was 14.6 µM, the TGI (UACC-62 melanoma) was 28.9 µM and the GI50 (DU-145 prostate) was 11.7 µM. For the same compound, the TGI (DU-145 prostate) was 26.8 µM, the GI50 (OVCAR-8 ovarian) was 29.4 µM and the TGI (OVCAR-8 ovarian) was 86.4 µM. For the same compound, the GI50 (ACHN renal) was 19.2 µM, the TGI (ACHN renal) was 35 µM and the GI50 (U251 CNS) was 23.9 µM. The TGI (U251 CNS) was 54.3 µM, the GI50 (PC-3 prostate) was 18.4 µM and the TGI (PC-3 prostate) was 44.4 µM. For the same compound, the GI50 (EKVX NSCLC) was 16.9 µM, the TGI (EKVX NSCLC) was 36.4 µM and the GI50 (IGROV1 ovarian) was 18.7 µM. It also gave a TGI (IGROV1 ovarian) greater than 100 µM, a GI50 (HOP-62 NSCLC) of 15.5 µM and a TGI (HOP-62 NSCLC) of 30.4 µM. It also gave a GI50 (NCI-H460 lung) of 20 µM, a TGI (NCI-H460 lung) of 42.2 µM and a GI50 (SW-620 colon) of 13.6 µM. For the same compound, the TGI (SW-620 colon) was 37.5 µM, the GI50 (MCF7 breast) was 20.3 µM and the TGI (MCF7 breast) was 43.5 µM. It also gave a GI50 (NCI-H23 lung) of 15.8 µM, a TGI (NCI-H23 lung) of 33 µM and a GI50 (HT29 colon) of 24.9 µM. It also gave a TGI (HT29 colon) of 71.5 µM, a GI50 (SK-MEL-5 melanoma) of 16.1 µM and a TGI (SK-MEL-5 melanoma) of 32.6 µM. For the same compound, the GI50 (NCI/ADR-RES ovarian) was 39.6 µM, the TGI (NCI/ADR-RES ovarian) was greater than 100 µM and the GI50 (LOX IMVI melanoma) was 15.8 µM. For the same compound, the TGI (LOX IMVI melanoma) was 54 µM, the GI50 (OVCAR-5 ovarian) was 22.3 µM and the TGI (OVCAR-5 ovarian) was 42.4 µM. It also gave a GI50 (SK-OV-3 ovarian) of 33.8 µM, a TGI (SK-OV-3 ovarian) greater than 100 µM and a GI50 (HCT-15 colon) of 11.7 µM. For the same compound, the TGI (HCT-15 colon) was 25.7 µM, the GI50 (RPMI-8226 leukemia) was 4.19 µM and the TGI (RPMI-8226 leukemia) was 20.3 µM. The GI50 (OVCAR-4 ovarian) was 24.9 µM, the TGI (OVCAR-4 ovarian) was 56.1 µM and the GI50 (SNB-19 CNS) was 25.6 µM. For the same compound, the TGI (SNB-19 CNS) was 67.7 µM, the GI50 (CAKI-1 renal) was 13.6 µM and the TGI (CAKI-1 renal) was 28.3 µM. For the same compound, the GI50 (KM12 colon) was 16 µM, the TGI (KM12 colon) was 30.9 µM and the GI50 (A549 NSCLC) was 20.4 µM. For the same compound, the TGI (A549 NSCLC) was 42.9 µM.

From PubChem BioAssay (NCI)
